The data set is described as follows: Solubility of the solids in organic and aqueous media / common solvents. Type of data set: physicochemical.

The results in this text go back to US20250140486A1, “FUSED AROMATIC MOLECULES AS ELECTRODE MATERIALS” (Massachusetts Institute of Technology, priority 2021, published 2025).

In the case of `Nc1c(N)c(=O)c2[nH]c3c(=O)c(N)c(N)c(=O)c3[nH]c2c1=O` [BTABQ, tetraamino-dihydrophenazine-1,4,6,9-tetrone], the “solubility (form insoluble solids)” value (in both organic and aqueous media) is reported as “insoluble”. For the same molecule, the solubility result runs as follows: (in common NMR solvents) “insoluble”; (in common organic solvents) “highly insoluble”.
